The target in the experiment is T1, CatSper channel (Homo sapiens, UniProt Q7RTX7+Q86XQ3+Q8NEC5+Q96P56).
T1 construct: endogenous in cells; host or cells: Sperm cells in untreated ejaculate from a healthy volunteer
The experiment is described as follows: CatSper modulation test: sperm motility in a test solution essentially free of free calcium, determined by light microscopy. In kind it is cell-based. Conditions: for motility: after about 10 minutes, normalized (first reading in the Ca2+-containing control = 100%). As to the method:
• Fig. 1: Time course of sperm motility in the CatSper modulation test. […] Sperm cells were exposed to a calcium-free buffer (grey curves) containing different concentrations of the exemplified CatSper inhibitor RU1968 at time t = 0 minutes up to t = 90 minutes. A control sample (black, HTF) was kept under Ca^2+-containing conditions. During a subsequent incubation at 37 °C, the motility in the sperm population was determined by light microscopy; the data was normalized (first reading in the Ca^2+-containing control = 100%).
The Ca^2+-containing solution being used in Figure 1 of the present invention corresponds to the HTF buffer (human tubular fluid) used for years in research with spermatozoa (Strünker et al. 2011, Nature 471, 382-386). The calcium-free solution is also based on this buffer. It is very likely that the test can also be carried out with buffer solutions of a different composition, as long as they are kept in the physiological range and comprise the herein mentioned ranges or values for calcium and magnesium. Table 1: Composition of the Ca2+-containing and the Ca2+-free solutions being used in the method of the present invention.
For performing a CatSper-Screening-Test, 178 µl of the calcium-free solution and 2 µl of the solvent used to prepare the test compound solution is used to produce the control solution (calcium-free solution without any test compound). A test solution is produced by adding 178 µl of the calcium-free solution and 2 µl of the test compound solution together. Optionally, another 180 µl of the calcium-containing solution (without any test compound) may further be used in another vial (see particular composition above in Tab. 1). The solutions are then stored at 4 °C and heated to 37 °C before use to warm up the solutions.
A spermatozoa (semen) sample is then obtained from a subject who is a healthy volunteer. A volume of 20 µl of the ejaculate is added to the calcium-free control, calcium-free test and calcium-containing solutions in each micro reaction tube. By low-speed vortex mixing or repeatedly inverting the micro reaction tubes, a homogeneous spermatozoa suspension is generated. Both micro reaction tubes are then incubated at 37 °C for 15 min. After incubation, the mixing step is repeated and the spermatozoa motility is determined for the conditions by counting a total number of 200 sperm cells. The fraction of motile sperm is then compared for the calcium-free control solution with and without any test compound. If a difference in the fraction of motile sperm is determined the test compound is identified as inhibitor / activator or no modulator of the CatSper activity.

Take `CC(=O)[C@H]1CC[C@H]2[C@@H]3CCC4=CC(=O)CC[C@]4(C)[C@H]3CC[C@]12C` [Progesterone, progesterone]: where the note is “10 µM, calcium-free solution, Fig. 1”, the “effect on CatSper ion channel activity in the CatSper-Screening-Test” value is reported as “activates CatSper ion channel activity”.

On to `C[C@@H](NCCN(C)C)[C@@H]1CC[C@@H]2[C@H]3CCc4cc(O)ccc4[C@@H]3CC[C@]21C` [RU1968], for which the motility entry is “about 106%” (3 µM inhibitor in Ca2+-free buffer, 37 °C, Fig. 2); roughly 110% (6 µM inhibitor in Ca2+-free buffer, 37 °C, Fig. 2); “about 116%” (12 µM inhibitor in Ca2+-free buffer, 37 °C, Fig. 2). In addition, the “behaviour of sperm cells from healthy volunteers in the CatSper-Screening-Test” value (30 µM, calcium-free solution, Fig. 1) is on record as “behave in the same way as sperm from patients with CatSper dysfunction”. For the same molecule, the “sperm cell motility under essentially Ca2+-free conditions” value (different concentrations, t = 0 minutes up to t = 90 minutes, 37 °C, Fig. 2) was “modulates the sperm cell motility in a concentration-dependent manner”.

For the origin of these results see EP4222493B1, “SCREENING TEST FOR CATSPER MODULATORS” (Westfälische Wilhelms-Universität Münster, priority 2020, dated 2022).
